{"source": "patent US6884802B2", "about": "“6-heteroarylphenanthridines” (ALTANA Pharma AG, priority 2000, dated 2005)", "data": [{"tested_on": "PDE4", "test": "Inhibition of PDE4 activity ([3H]cAMP hydrolysis, cytosol from human neutrophils)", "assay_type": "biochemical", "conditions": "0.5 μM cAMP, Motapizone 1 μM included to suppress PDE3, 37° C.", "description": "Method for Measuring Inhibition of PDE4 Activity\nPDE4 activity was determined as described by Thompson et al. (Adv Cycl Nucl Res 10: 69-92, 1979) with some modifications (Bauer and Schwabe, Naunyn-Schmiedeberg's Arch Pharmacol 311: 193-198, 1980). At a final assay volume of 200 μl (96 well microtiter plates) the assay mixture contained 20 mM Tris (pH 7.4), 5 mM MgCl2, 0.5 μM cAMP, [^3H]cAMP (about 30,000 cpm/assay), the test compound and an aliquot of cytosol from human neutrophils which mainly contains PDE4 activity as described by Schudt et al. (Naunyn-Schmiedeberg's Arch Pharmacol 344: 682-690, 1991); the PDE3-specific inhibitor Motapizone (1 μM) was included to suppress PDE3 activity originating from contaminating platelets. Serial dilutions of the compounds were prepared in DMSO and further diluted 1:100 (v/v) in the assays to obtain the desired final concentrations of the inhibitors at a DMSO concentration of 1% (v/v) which by itself only slightly affected PDE4 activity.\nAfter preincubation for 5 min at 37° C., the reaction was started by the addition of substrate (cAMP) and the assays were incubated for further 15 min at 37° C. 50 μl of 0.2 N HCl was added to stop the reaction and the assays were left on ice for about 10 min. Following incubation with 25 μg 5′-nucleotidase (Crotalus atrox snake venom) for 10 min at 37° C., the assays were loaded on QAE Sephadex A-25 (1 ml bed volume). The columns were eluted with 2 ml of 30 mM ammonium formiate (pH 6.0) and the eluate was counted for radioactivity. Results were corrected for blank values (measured in the presence of denatured protein) which were below 5% of total radioactivity. […] The IC50-values for the compounds according to the invention for the inhibition of the PDE4 activity were determined from the concentration-inhibition curves by nonlinear-regression.", "values": [{"smiles": "COc1cc2c(cc1OC)[C@@H]1CCCC[C@@H]1N=C2c1cccs1", "note": "(relative stereo) [Compound 7, cis-8,9-Dimethoxy-6-(thiophen-2-yl)-1,2,3,4,4a,10b-hexahydrophenanthridine]", "Inhibition of PDE4 activity [measured as −logC50 (mol/l)]": "8.14 −log(mol/l)"}, {"smiles": "COc1cc2c(cc1OC)[C@@H]1CCCC[C@@H]1N=C2c1ccc(C)s1", "note": "(relative stereo) [Compound 8, cis-8,9-Dimethoxy-6-(5-methyl-thiophen-2-yl)-1,2,3,4,4a,10b-hexahydrophenanthridine]", "Inhibition of PDE4 activity [measured as −logC50 (mol/l)]": "8.19 −log(mol/l)"}, {"smiles": "COc1cc2c(cc1OC)[C@@H]1CCCC[C@@H]1N=C2c1ccsc1", "note": "(relative stereo) [Compound 9, cis-8,9-Dimethoxy-6-(thiophen-3-yl)-1,2,3,4,4a,10b-hexahydrophenanthridine]", "Inhibition of PDE4 activity [measured as −logC50 (mol/l)]": "7.45 −log(mol/l)"}, {"smiles": "COc1cc2c(cc1OC)[C@@H]1CCCC[C@@H]1N=C2c1cc2ccccc2[nH]1.O=C(O)C(F)(F)F", "note": "(relative stereo) [Compound 10, cis-8,9-Dimethoxy-6-(1H-indol-2-yl)-1,2,3,4,4a,10b-hexahydrophenanthridine trifluoroacetate]", "Inhibition of PDE4 activity [measured as −logC50 (mol/l)]": "8.19 −log(mol/l)"}, {"smiles": "COc1cc2c(cc1OC)[C@@H]1CCCC[C@@H]1N=C2c1cc2cc(F)ccc2[nH]1.O=C(O)C(F)(F)F", "note": "(relative stereo) [Compound 11, cis-8,9-Dimethoxy-6-(5-fluoro-1H-indol-2-yl)-1,2,3,4,4a,10b-hexahydrophenanthridine trifluoroacetate]", "Inhibition of PDE4 activity [measured as −logC50 (mol/l)]": "8.14 −log(mol/l)"}, {"smiles": "COc1ccc2cc(C3=N[C@H]4CCCC[C@H]4c4cc(OC)c(OC)cc43)[nH]c2c1.O=C(O)C(F)(F)F", "note": "(relative stereo) [Compound 12, cis-8,9-Dimethoxy-6-(6-methoxy-1H-indol-2-yl)-1,2,3,4,4a,10b-hexahydrophenanthridine trifluoroacetate]", "Inhibition of PDE4 activity [measured as −logC50 (mol/l)]": "8.27 −log(mol/l)"}, {"smiles": "COc1cc2c(cc1OC)[C@@H]1CCCC[C@@H]1N=C2c1ccc2ccccc2n1", "note": "(relative stereo) [Compound 15, cis-8,9-Dimethoxy-6-(quinolin-2-yl)-1,2,3,4,4a,10b-hexahydrophenanthridine]", "Inhibition of PDE4 activity [measured as −logC50 (mol/l)]": "7.68 −log(mol/l)"}, {"smiles": "COc1cc2c(cc1OC)[C@@H]1CCCC[C@@H]1N=C2c1occc1C", "note": "(relative stereo) [Compound 16, cis-8,9-Dimethoxy-6-(3-methyl-furan-2-yl)-1,2,3,4,4a,10b-hexahydrophenanthridine]", "Inhibition of PDE4 activity [measured as −logC50 (mol/l)]": "7.42 −log(mol/l)"}, {"smiles": "COc1cc2c(cc1OC)[C@@H]1CCCC[C@@H]1N=C2c1cc2ccccc2s1", "note": "(relative stereo) [Compound 17, cis-8,9-Dimethoxy-6-(benzo[b]thiophen-2-yl)-1,2,3,4,4a,10b-hexahydrophenanthridine]", "Inhibition of PDE4 activity [measured as −logC50 (mol/l)]": "8.84 −log(mol/l)"}, {"smiles": "COc1cc2c(cc1OC)[C@@H]1CCCC[C@@H]1N=C2c1oc2ccccc2c1C", "note": "(relative stereo) [Compound 20, cis-8,9-Dimethoxy-6-(3-methyl-benzofuran-2-yl)-1,2,3,4,4a,10b-hexahydrophenanthridine]", "Inhibition of PDE4 activity [measured as −logC50 (mol/l)]": "8.53 −log(mol/l)"}, {"smiles": "COc1cc2c(cc1OC)[C@@H]1CCCC[C@@H]1N=C2c1cc2cccc(OC)c2o1", "note": "(relative stereo) [Compound 21, cis-8,9-Dimethoxy-6-(7-methoxy-benzofuran-2-yl)-1,2,3,4,4a,10b-hexahydrophenanthridine]", "Inhibition of PDE4 activity [measured as −logC50 (mol/l)]": "8.51 −log(mol/l)"}, {"smiles": "COc1ccc2oc(C3=N[C@H]4CCCC[C@H]4c4cc(OC)c(OC)cc43)cc2c1", "note": "(relative stereo) [Compound 23, cis-8,9-Dimethoxy-6-(5-methoxy-benzofuran-2-yl)-1,2,3,4,4a,10b-hexahydrophenanthridine]", "Inhibition of PDE4 activity [measured as −logC50 (mol/l)]": "8.33 −log(mol/l)"}, {"smiles": "COc1cc2c(cc1OC)[C@@H]1CCCC[C@@H]1N=C2c1ccnc2ccccc12", "note": "[Compound 1, (−)-cis-8,9-Dimethoxy-6-quinolin-4-yl-1,2,3,4,4a,10b-hexahydrophenanthridine]", "Inhibition of PDE4 activity [measured as −logC50 (mol/l)]": "7.4 −log(mol/l)"}]}]}
